Experimental data from patent publication US20200046802A1, “THERAPEUTIC METHOD USING TOLEROGENIC PEPTIDES” (APITOPE INTERNATIONAL NV, priority 2017, published 2020).
Ends that are not written are not given here.

Legend:
[1] = tested on: subjects with Graves' disease; test: Open label upward titration study of ATX-GD-59, safety; format: in vivo, human; conditions: first 5 patients
Procedure: (§1) Safety and proof of principle study of ATX-GD-59 in male and female subjects with Graves' disease not currently treated with anti-thyroid therapy: An Open label study, with an upward titration over five dose levels administered by Intradermal injection.
(§2) There was an upward titration over five dose levels (injection(s) of 25, 50, 100, 400 and 800 μg) of ATX-GD-59 followed by injection(s) of 800 μg injected on five further occasions. All doses were based on the total peptide.
(§3) All doses were administered by intradermal injection at intervals of 14+/−3 days.
Subjects will be observed in the clinic for at least two hours after administration of the study drug and vital signs will be recorded at 15 minute intervals for the first hour and 30 minute intervals for the second hour. […]
Safety endpoints, which will be evaluated on an ongoing basis up to Week 22, are: • Injection site reactions as reported by the subjects in the diary card. • Occurrence of treatment related adverse events (Adverse Events), Serious Adverse Events, and laboratory abnormalities compared to baseline. • Results from the physical examination, and vital signs (reported on an ongoing basis and compared to baseline/screening). • Premature termination and reasons for premature termination from treatment and/or the study.

[2] = tested on: subjects with Graves' disease; test: Open label upward titration study of ATX-GD-59, TSHR antibody and free T3 levels; format: in vivo, human
Procedure: as §1, §2, §3
Criteria for Evaluation of the Secondary Objectives: • TSHR antibody levels. • Ratio of stimulatory vs inhibitory TSHR antibodies. • Free T3, free T4 and TSH serum levels.

ATX-GD-59: comprises the RNB-5D-K1 and RNB-9B peptides of SEQ ID NOs: 5 and 6; lyophilised equimolar mixture of two peptides (chain 1 KKKKYVSIDVTLQQLESHKKK; chain 2 GLKMFPDLTKVYSTD; not fully specified)
safety data analysed by DMC [1]: No safety issues were identified | T3, % change from SD1 to W18 ([2]; Subject 3101): 13.60% | TRAb, % change from SD1 to W18 ([2]; Subject 3101): 3.58% | TSI, % change from SD1 to W18 ([2]; Subject 3101): −30.32% | T3, % change from SD1 to W18 ([2]; Subject 3301): 21.4% | TRAb, % change from SD1 to W18 ([2]; Subject 3301): 16.60% | TSI, % change from SD1 to W18 ([2]; Subject 3301): −4.48% | T3, % change from SD1 to W18 ([2]; Subject 3402): −17.72% | TRAb, % change from SD1 to W18 ([2]; Subject 3402): −61.13% | TSI, % change from SD1 to W18 ([2]; Subject 3402): −57.89% | T3, % change from SD1 to W18 ([2]; Subject 3501): −22.39% | TRAb, % change from SD1 to W18 ([2]; Subject 3501): −30.33% | TSI, % change from SD1 to W18 ([2]; Subject 3501): −32.45% | T3, % change from SD1 to W18 ([2]; Subject 3503): −45.33% | TRAb, % change from SD1 to W18 ([2]; Subject 3503): −64.51% | TSI, % change from SD1 to W18 ([2]; Subject 3503): −61.71% | stimulating TRAB levels (TSI) ([2]; first 5 subjects): All subjects had decrease | subjects with decreases in T3 and TRAB ([2]; first 5 subjects): Three of 5
